Read-outs that look alike come from different tables or passages of the source. Numbered stars: 1 amine (or outer) side, 2 acyl side, 3 side chain; on linkers, the order of the positions; unused ones are H or OH. Bridge positions count the residues as written; N and C are the ends. Side chains are listed from the residue outwards. Peptide text beside a SMILES is read from it. * marks the point of attachment. C20 diacid = O=C(O)CCCCCCCCCCCCCCCCCCC(=O)*; γGlu = O=C(O)[C@H](CCC(=O)[*:2])N[*:1]; AEEA = NCCOCCOCC(=O)O

Here are results for five molecules from PMC11284788, “NN1213 – A Potent, Long-Acting, and Selective Analog of Human Amylin” (Journal of Medicinal Chemistry, 2024).

One assay concerns rats. The experiment in a line: Acute food intake in rats. The class given is in vivo, rat. As to conditions: single sc injection of 30 nmol/kg, relative to vehicle, mean ± SEM, n = 5–7 per group.
The target of a further assay is T1, hCTR (Homo sapiens, UniProt P30988).
T1 sequence (P30988 25-474): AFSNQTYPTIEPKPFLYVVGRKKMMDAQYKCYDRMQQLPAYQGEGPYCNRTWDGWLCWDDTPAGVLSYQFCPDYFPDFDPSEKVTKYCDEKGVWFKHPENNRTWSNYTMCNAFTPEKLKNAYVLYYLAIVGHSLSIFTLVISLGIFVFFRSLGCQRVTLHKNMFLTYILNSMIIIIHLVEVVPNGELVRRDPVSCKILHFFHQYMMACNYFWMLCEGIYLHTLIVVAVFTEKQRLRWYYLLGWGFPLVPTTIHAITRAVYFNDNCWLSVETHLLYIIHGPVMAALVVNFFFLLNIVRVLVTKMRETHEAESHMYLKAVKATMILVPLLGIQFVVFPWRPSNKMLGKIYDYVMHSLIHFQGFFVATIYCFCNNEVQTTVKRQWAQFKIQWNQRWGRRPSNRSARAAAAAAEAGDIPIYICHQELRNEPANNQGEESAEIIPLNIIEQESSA
The experiment in a line: scintillation proximity binding assay, hCTR membranes. On the set-up: expressed in transfected cells; host or cells: BHK tk-ts 13, transient (FuGENE 6); membranes for the SPA, whole cells for the species-specific assays. How it is done: The apparent binding affinities were determined using a scintillation proximity assay with beads from PerkinElmer and cell membranes containing the AMY3R or CTRs. […] Membranes were harvested and membranes were prepared and kept at −80 °C until use. The assay was performed in a 384-well Optiplate (PerkinElmer). Membranes were mixed with scintillation proximity assay beads in a 1:1 ratio. […] Samples were analyzed on a TopCounter (Packard). The IC50 values were calculated using GraphPad Prism. See Supporting Information S7: SAR Screening Assay Methods (Binding Assays (Human and Rat)) for more information.
Binding Assays (Human and Rat). Brief descriptions of the methods used to determine binding affinities for SAR analysis are described below. Curves and IC50 values were plotted and calculated in GraphPad Prism using nonlinear regression (one site binding competition analysis), with pIC50 values […]
values were used to calculate the binding affinity ratios in order to express the selectivity of compounds for the AMY3R versus the CTR.
CTR Binding Assay. The binding assay was performed using scintillation proximity assay (SPA) beads (RPNQ0001) from PerkinElmer and cell membranes containing either the hCTR or rCTR. BHK […]
Membranes were prepared in the following way: the cells were rinsed with PBS and incubated with Versene for approximately 5 min before harvesting. The cells were flushed with PBS and the cell-suspension was centrifuged for 5 min at 1000 rpm. Cells were homogenized (Ultra Turrax) in a buffer […]
containing 20 mM Na-HEPES and 0.1 mM EDTA (pH 7.4, buffer 2). The resulting pellet was re-suspended in buffer 2 and protein concentration was measured (BCA protein assay, Pierce). The homogenate was kept cold during the whole procedure. The membranes were stored at –80 °C until […]
The binding assay was performed in a 384-well Optiplate (PerkinElmer) in a total volume of 40 μL.
Membranes were mixed with SPA beads in a 1:1 ratio. […]
mg/well. Test compounds were dissolved in DMSO and further diluted in assay buffer (50 mM HEPES, pH 7.4, 1 mM CaCl2, 5 mM MgCl2, 0.1% ovalbumin, and 0.02% Tween-20).
Calcitonin (NEX422 PerkinElmer) was dissolved in assay buffer and added to the Optiplate at a final […]
prior to centrifugation (1500 rpm, 10 min). Samples were analyzed on TopCounter (Packard).

[1] abbreviates: SPA binding assay, Tables S13 and S15.
The mark [2] stands for this setting: SPA binding assay, Tables S13 and S15, read-out: hCTR pIC50 (converted).
Setting [3] is: SPA, BHK cell membranes, 125I-Calcitonin 75 pM, 120 min 25 °C, read-out: hCTR IC50.

Consider `CC[C@H](C)[C@H](NC(=O)[C@H](C)NC(=O)CNC(=O)[C@H](Cc1ccccc1)NC(=O)[C@H](CC(N)=O)NC(=O)[C@@H]1CCCN1C(=O)[C@H](CO)NC(=O)[C@H](CO)NC(=O)[C@H](Cc1c[nH]cn1)NC(=O)[C@H](CCCNC(=N)N)NC(=O)[C@H](CC(C)C)NC(=O)[C@H](Cc1ccccc1)NC(=O)[C@H](CC(N)=O)NC(=O)[C@H](C)NC(=O)[C@H](CC(C)C)NC(=O)[C@H](CCCNC(=N)N)NC(=O)[C@H](CCC(N)=O)NC(=O)[C@@H](NC(=O)[C@H](C)NC(=O)[C@@H]1CSSC[C@H](NC(=O)[C@H](CCCNC(=N)N)NC(=O)CNC(=O)CC[C@H](NC(=O)CCCCCCCCCCCCCCCCCCC(=O)O)C(=O)O)C(=O)N[C@@H](CC(N)=O)C(=O)N[C@@H]([C@@H](C)O)C(=O)N[C@@H](C)C(=O)N[C@@H]([C@@H](C)O)C(=O)N1)[C@@H](C)O)C(=O)N1CCC[C@H]1C(=O)N[C@@H](CO)C(=O)N[C@@H](CO)C(=O)N[C@H](C(=O)N[C@@H](CC(N)=O)C(=O)N[C@H](C(=O)NCC(=O)N[C@@H](CO)C(=O)N[C@@H](Cc1c[nH]cn1)C(=O)N[C@H](C(=O)N[C@@H](Cc1ccc(O)cc1)C(N)=O)[C@@H](C)O)C(C)C)[C@@H](C)O` [Peptide 19] ({C20 diacid-γGlu}-GRCNTATCATQRLANFLRHSSPNFGAIPSSTNVGSHTY-NH2; disulfide 3-8), for which, in the assay with rats, the “Acute food intake reduction 24–48 h” value amounted to 6 ± 7%. Moreover, the “hCTR pIC50” value at hCTR (setting [1]) was determined as 7.81.

For `CC[C@H](C)[C@H](NC(=O)[C@@H]1CCCN1C(=O)CNC(=O)[C@H](Cc1ccccc1)NC(=O)[C@H](CC(N)=O)NC(=O)[C@@H]1CCCN1C(=O)[C@H](CO)NC(=O)[C@H](CO)NC(=O)[C@H](Cc1c[nH]cn1)NC(=O)[C@H](CCCNC(=N)N)NC(=O)[C@H](CC(C)C)NC(=O)[C@H](Cc1ccccc1)NC(=O)[C@H](CC(=O)O)NC(=O)[C@H](C)NC(=O)[C@H](CC(C)C)NC(=O)[C@H](CCCNC(=N)N)NC(=O)[C@H](CCC(N)=O)NC(=O)[C@@H](NC(=O)[C@H](C)NC(=O)[C@@H]1CSSC[C@H](NC(=O)[C@@H](N)CCCCNC(=O)CC[C@H](NC(=O)CC[C@H](NC(=O)CCCCCCCCCCCCCCCCCCC(=O)O)C(=O)O)C(=O)O)C(=O)N[C@@H](CC(N)=O)C(=O)N[C@@H]([C@@H](C)O)C(=O)N[C@@H](C)C(=O)N[C@@H]([C@@H](C)O)C(=O)N1)[C@@H](C)O)C(=O)N[C@@H](CC(C)C)C(=O)N[C@@H](CO)C(=O)N[C@@H](CO)C(=O)N[C@H](C(=O)N[C@@H](CC(N)=O)C(=O)N[C@H](C(=O)NCC(=O)N[C@@H](CO)C(=O)N[C@@H](CC(=O)O)C(=O)N[C@H](C(=O)N[C@@H](Cc1ccc(O)cc1)C(N)=O)[C@@H](C)O)C(C)C)[C@@H](C)O` [Peptide 3] (H-K([γGlu-γGlu-C20 diacid])CNTATCATQRLADFLRHSSPNFGPILSSTNVGSDTY-NH2; disulfide 2-7), the IC50 at hCTR (setting [2]) and at hCTR (setting [3]) was 74.1 nM throughout.

Consider `CC(C)C[C@H](NC(=O)[C@H](CCCNC(=N)N)NC(=O)[C@H](CCC(N)=O)NC(=O)[C@@H](NC(=O)[C@H](C)NC(=O)[C@@H]1CSSC[C@H](NC(=O)[C@@H](N)CCCCNC(=O)CC[C@H](NC(=O)CC[C@H](NC(=O)CCCCCCCCCCCCCCCCCCC(=O)O)C(=O)O)C(=O)O)C(=O)N[C@@H](CC(N)=O)C(=O)N[C@@H]([C@@H](C)O)C(=O)N[C@@H](C)C(=O)N[C@@H]([C@@H](C)O)C(=O)N1)[C@@H](C)O)C(=O)N[C@@H](C)C(=O)N[C@@H](CC(=O)O)C(=O)N[C@@H](Cc1ccccc1)C(=O)N[C@@H](CC(C)C)C(=O)N[C@@H](CCCNC(=N)N)C(=O)N[C@@H](Cc1c[nH]cn1)C(=O)N[C@@H](CO)C(=O)N[C@@H](CO)C(=O)N1CCC[C@H]1C(=O)N[C@@H](CC(N)=O)C(=O)N[C@@H](Cc1ccccc1)C(=O)NCC(=O)N[C@@H](C)C(=O)N1CCC[C@H]1C(=O)N[C@@H](CC(C)C)C(=O)N[C@@H](CO)C(=O)N[C@@H](CO)C(=O)N[C@H](C(=O)N[C@@H](CC(N)=O)C(=O)N[C@H](C(=O)NCC(=O)N[C@@H](CO)C(=O)N[C@@H](CC(=O)O)C(=O)N[C@H](C(=O)N[C@@H](Cc1ccc(O)cc1)C(N)=O)[C@@H](C)O)C(C)C)[C@@H](C)O` [Peptide 5] (H-K([γGlu-γGlu-C20 diacid])CNTATCATQRLADFLRHSSPNFGAPLSSTNVGSDTY-NH2; disulfide 2-7), for which the IC50 on hCTR (setting [2]) and at hCTR (setting [3]) was 30.2 nM each time.

As for `CC[C@H](C)[C@H](NC(=O)[C@H](C)NC(=O)CNC(=O)[C@H](Cc1ccccc1)NC(=O)[C@H](CC(N)=O)NC(=O)[C@@H]1CCCN1C(=O)[C@H](CO)NC(=O)[C@H](CO)NC(=O)[C@H](Cc1c[nH]cn1)NC(=O)[C@H](CCCNC(=N)N)NC(=O)[C@H](CC(C)C)NC(=O)[C@H](Cc1ccccc1)NC(=O)[C@H](CC(=O)O)NC(=O)[C@H](C)NC(=O)[C@H](CC(C)C)NC(=O)[C@H](CCCNC(=N)N)NC(=O)[C@H](CCC(N)=O)NC(=O)[C@@H](NC(=O)[C@H](C)NC(=O)[C@@H]1CSSC[C@H](NC(=O)[C@@H](N)CCCCNC(=O)CC[C@H](NC(=O)CC[C@H](NC(=O)CCCCCCCCCCCCCCCCCCC(=O)O)C(=O)O)C(=O)O)C(=O)N[C@@H](CC(N)=O)C(=O)N[C@@H]([C@@H](C)O)C(=O)N[C@@H](C)C(=O)N[C@@H]([C@@H](C)O)C(=O)N1)[C@@H](C)O)C(=O)N1CCC[C@H]1C(=O)N[C@@H](CO)C(=O)N[C@@H](CO)C(=O)N[C@H](C(=O)N[C@@H](CC(N)=O)C(=O)N[C@H](C(=O)NCC(=O)N[C@@H](CO)C(=O)N[C@@H](CC(=O)O)C(=O)N[C@H](C(=O)N[C@@H](Cc1ccc(O)cc1)C(N)=O)[C@@H](C)O)C(C)C)[C@@H](C)O` [Peptide 6] (H-K([γGlu-γGlu-C20 diacid])CNTATCATQRLADFLRHSSPNFGAIPSSTNVGSDTY-NH2; disulfide 2-7), at hCTR (setting [1]), the “hCTR pIC50” value turned out to be 7.71. The IC50 at hCTR (setting [3]) was determined as 19.5 nM.

For `CC[C@H](C)[C@H](NC(=O)[C@H](C)NC(=O)CNC(=O)[C@H](Cc1ccccc1)NC(=O)[C@H](CC(N)=O)NC(=O)[C@@H]1CCCN1C(=O)[C@H](CO)NC(=O)[C@H](CO)NC(=O)[C@H](Cc1c[nH]cn1)NC(=O)[C@H](CCCNC(=N)N)NC(=O)[C@H](CC(C)C)NC(=O)[C@H](Cc1ccccc1)NC(=O)[C@H](CC(N)=O)NC(=O)[C@H](C)NC(=O)[C@H](CC(C)C)NC(=O)[C@H](CCCNC(=N)N)NC(=O)[C@H](CCC(N)=O)NC(=O)[C@@H](NC(=O)[C@H](C)NC(=O)[C@@H]1CSSC[C@H](NC(=O)[C@H](CCCCN)NC(=O)COCCOCCNC(=O)CC[C@H](NC(=O)CCCCCCCCCCCCCCCCCCC(=O)O)C(=O)O)C(=O)N[C@@H](CC(N)=O)C(=O)N[C@@H]([C@@H](C)O)C(=O)N[C@@H](C)C(=O)N[C@@H]([C@@H](C)O)C(=O)N1)[C@@H](C)O)C(=O)N1CCC[C@H]1C(=O)N[C@@H](CO)C(=O)N[C@@H](CO)C(=O)N[C@H](C(=O)N[C@@H](CC(N)=O)C(=O)N[C@H](C(=O)NCC(=O)N[C@@H](CO)C(=O)N[C@@H](Cc1c[nH]cn1)C(=O)N[C@H](C(=O)N[C@@H](Cc1ccc(O)cc1)C(N)=O)[C@@H](C)O)C(C)C)[C@@H](C)O` [Peptide 18] ({C20 diacid-γGlu-AEEA}-KCNTATCATQRLANFLRHSSPNFGAIPSSTNVGSHTY-NH2; disulfide 2-7; N-terminus assumed), the “Acute food intake reduction 24–48 h” value in the assay on rats was found to be 3 ± 6%.
